Our source for the IC50 values is patent US20150071989A1, “LIPOSOMES FOR HEMATOLOGICAL TUMORS” (University of Tennessee Research Foundation, priority 2013, published 2015).

What is called IC50 is the concentration that gives 50% inhibition. A low value points to higher potency.

The subject of assay [1] is Jurkat cells. The assay can be described thus: MTT cell viability assay, in vitro cytotoxicity in CD22- Jurkat cells. It is filed as cell-based. Conditions: Homo sapiens. The protocol:
FIG. 14A is a graph showing the in vitro cytotoxicity of targeted, drug-loaded liposomes (solid line, “CD22 Targeted NP”) and untargeted, drug-loaded liposomes (dotted line, “Untargeted NP”) in Jurkat cells after 24 hours. The Jurkat cells lack the cell surface antigen (CD22) to which the antibody of the targeted liposomes binds. For comparison, the in vitro cytotoxic effects of free (solution) drug (N-benzyladriamycin-14-valerate (AD198)) are also shown (dashed line, “Solution Drug”). Cytotoxicity is expressed as percentage (%) cell kill as measured via (3-(4,5-dimethylthiazol-2-yl)-2,5-diphenyltetrazolium bromide (MTT) cell viability assay. The data represents the average of three measurements; the error bars represent±standard deviation.
FIG. 15A is a graph showing the in vitro cytotoxicity of targeted, drug-loaded liposomes (solid line, “CD22 Targeted NP”) and untargeted, drug-loaded liposomes (dotted line, “Untargeted NP”) in Jurkat cells after 48 hours. […] Cytotoxicity is expressed as percentage (%) cell kill as measured via (3-(4,5-dimethylthiazol-2-yl)-2,5-diphenyltetrazolium bromide (MTT) assay. The data represents the average of three measurements; the error bars represent±standard deviation.
In vitro efficacy of the liposomes was also studied using the MTT assay to assess cell viability. […] IC50 concentrations were also calculated for the solution drug and the targeted liposome. […]

In assay [2] the test system is Daudi cells. Kind of assay: MTT cell viability assay, in vitro cytotoxicity in CD22+ Daudi cells. It is filed as cell-based. Conditions: Homo sapiens. As for the experimental part:
FIG. 14B is a graph showing the in vitro cytotoxicity of targeted, drug-loaded liposomes (solid line, “CD22 Targeted NP”) and untargeted, drug-loaded liposomes (dotted line, “Untargeted NP”) in Daudi cells after 24 hours. The Daudi cells have the cell surface antigen (CD22) to which the antibody of the targeted liposomes binds. For comparison, the in vitro cytotoxic effects of free (solution) drug (N-benzyladriamycin-14-valerate (AD198)) are also shown (dashed line, “Solution Drug”). Cytotoxicity is expressed as percentage (%) cell kill as measured via (3-(4,5-dimethylthiazol-2-yl)-2,5-diphenyltetrazolium bromide (MIT) cell viability assay. The data represents the average of three measurements; the error bars represent±standard deviation.
FIG. 15B is a graph showing the in vitro cytotoxicity of targeted, drug-loaded liposomes (solid line, “CD22 Targeted NP”) and untargeted, drug-loaded liposomes (dotted line, “Untargeted NP”) in Daudi cells after 48 hours. The Daudi cells have the cell surface antigen (CD22) to which the antibody of the targeted liposomes binds. […] Cytotoxicity is expressed as percentage (%) cell kill as measured via (3-(4,5-dimethylthiazol-2-yl)-2,5-diphenyltetrazolium bromide (MTT) cell viability assay. The data represents the average of three measurements; the error bars represent±standard deviation. […]

Regarding `CCCCC(=O)OCC(=O)[C@]1(O)Cc2c(O)c3c(c(O)c2[C@@H](O[C@H]2C[C@H](NCc4ccccc4)[C@H](O)[C@H](C)O2)C1)C(=O)c1c(OC)cccc1C3=O` [AD198, N-benzyladriamycin-14-valerate], the IC50 in assay [1] (Jurkat cells (CD22-), 24 hours) was 1050 nM; in assay [1] (Jurkat cells, 48 hours) it was 100 nM; in assay [2] (Daudi cells (CD22+), 24 hours), 250 nM; in assay [2] (Daudi cells, 48 hours), 100 nM.
